Experimental data: patent US20090028816A1, “Treatment of depression, psychosis, and anxiety” (priority 2007, published 2009)

Experiment: Range-finding tolerability and efficacy studies in neurological models
Assay type: in vivo
Settings: intraperitoneally at dose levels up to 15 mg/kg twice a day (bid) for multiple days
Protocol: Ibudilast is obtained as a pure powder from Sigma (St. Louis, Mo.) or Haorui Pharma (Edison, N.J.) and prepared daily as a solution for intraperitoneal or oral administration. Previous range-finding tolerability and efficacy studies in neurological models indicate that ibudilast is well-tolerated intraperitoneally at dose levels up to 15 mg/kg twice a day (bid) for multiple days. An appropriate amount of ibudilast is dissolved in 100% […] (PEG) 400 (Sigma) and then diluted down to a final concentration of 35% PEG400 in sterile saline (0.9% for injection). Drug stability and concentration are validated by HPLC/MS/MS.

CC(C)C(=O)c1c(C(C)C)nn2ccccc12 [Ibudilast, 3-isobutyryl-2-isopropylpyrazolo[1,5-a]pyridine]
tolerability, intraperitoneal: well-tolerated
